Measurements from patent publication US6797731B2, “Resorcinol derivatives” (Pfizer Inc., priority 2000, dated 2004).

Biological target: T1, human tyrosinase (Homo sapiens, UniProt P14679)
T1 construct: endogenous in cells; host or cells: SKMEL 188 human melanoma cell line (lysate)
T1 sequence (P14679 19-529): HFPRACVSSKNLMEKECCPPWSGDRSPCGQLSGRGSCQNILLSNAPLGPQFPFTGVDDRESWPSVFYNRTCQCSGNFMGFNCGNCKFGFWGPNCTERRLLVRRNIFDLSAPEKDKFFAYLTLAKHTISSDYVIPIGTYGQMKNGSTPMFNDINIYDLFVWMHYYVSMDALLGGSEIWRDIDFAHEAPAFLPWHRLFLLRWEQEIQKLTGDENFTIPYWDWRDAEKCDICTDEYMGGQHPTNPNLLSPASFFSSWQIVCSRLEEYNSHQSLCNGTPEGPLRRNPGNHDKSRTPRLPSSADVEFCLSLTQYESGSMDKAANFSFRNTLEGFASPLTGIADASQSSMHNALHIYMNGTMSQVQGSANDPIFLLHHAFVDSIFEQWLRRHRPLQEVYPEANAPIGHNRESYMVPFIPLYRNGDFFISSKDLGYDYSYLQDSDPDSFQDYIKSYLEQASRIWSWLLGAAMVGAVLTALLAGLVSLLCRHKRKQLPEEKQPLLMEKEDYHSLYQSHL
Test: Tyrosinase (DOPA oxidase) assay using cell lysate
Format: biochemical
Settings: SKMEL 188 cell lysates; L-DOPA 100 μg/ml; incubated 8 hrs; read at 405 nm
Method: 1. Tyrosinase (DOPA Oxidase) Assay Using Cell Lysate:
Human melanoma cell line, SKMEL 188 (licensed from Memorial Sloan-Kettering), is used in the cell lysate assay and the screen. In the assay, compounds and L-dihydroxyphenylalanine (L-DOPA) (100 μg/ml) are incubated with the cell lysates containing human tyrosinase for 8 hrs before the plates are read at 405 nm.

## N[C@H](Cc1ccccc1)C(=O)O[C@H]1CC[C@H](c2ccc(O)cc2O)CC1 [Example 22, trans-4-(2,4-Dihydroxyphenyl)cyclohexyl (2R)-2-amino-3-phenylpropanoate]
  IC50: ~2 µM
